{"source": "paper PMC7887271", "about": "“Fast acting allosteric phosphofructokinase inhibitors block trypanosome glycolysis and cure acute African trypanosomiasis in mice” (Nature Communications, 2021)", "key": {"[1]": {"test": "Experimentally determined pKa and logP (Pharmorphix)", "assay_type": "physicochemical", "experimental": "pKa and […] values for selected CTCB compounds were determined experimentally by the company Pharmorphix (www.matthey.com) and calculated pKas were determined using ChemAxon.software (https://chemaxon.com)."}, "[2]": {"test": "Brain and plasma concentrations in mice after oral dose", "assay_type": "in vivo", "settings": "female, CD-1, mouse, single oral dose of 50 mg kg^−1, 2 h", "experimental": "These values for concentrations of free compound in the brain give a Kp,uu value of 0.6 (defined as the ratio of unbound compound in brain to unbound compound in plasma). This ratio provides an estimate of the amount of free drug in the brain interstitial fluid as being just over half the free concentration in the blood.\nBlood samples were collected from terminal cardiac puncture at 0.08 (IV only), 0.25, 0.5, 1 (PO only), 2, 4, 8 and 24 hour time points. The whole blood was centrifuged to obtain plasma. Brains were also collected following cardiac perfusion from both sets of animals at 2 hours. Analysis of the biological samples was carried out by the company Selcia. Plasma proteins were precipitated by addition of PBS (1 volume) followed by 3 volumes of acetonitrile containing internal standard (verapamil). Following filtration through a protein precipitation plate the eluent was dried under nitrogen and re-suspended in mobile phase prior to analysis. Individual brains were homogenised in PBS and diluted to 10% w/v and divided into aliquots consisting of brain homogenate (1 volume, 0.3 ml) and 3 volumes (0.9 ml) of acetonitrile containing internal standard. Samples were centrifuged and supernatants removed and taken through a protein precipitation plate alongside an appropriate standard. […] Eluents were analysed by LC-MS/MS using a Phenomenex Gemini NX column (C18,30 x 2.1 mm, 3 micron). […]"}, "TbPFK": {"biological_target": "T1, TbPFK (Trypanosoma brucei brucei, UniProt O15648)", "T1 construct": "made in house; host or cells: Escherichia coli C41 (pET28a, codon optimised gene)", "T1 sequence (O15648 1-487)": "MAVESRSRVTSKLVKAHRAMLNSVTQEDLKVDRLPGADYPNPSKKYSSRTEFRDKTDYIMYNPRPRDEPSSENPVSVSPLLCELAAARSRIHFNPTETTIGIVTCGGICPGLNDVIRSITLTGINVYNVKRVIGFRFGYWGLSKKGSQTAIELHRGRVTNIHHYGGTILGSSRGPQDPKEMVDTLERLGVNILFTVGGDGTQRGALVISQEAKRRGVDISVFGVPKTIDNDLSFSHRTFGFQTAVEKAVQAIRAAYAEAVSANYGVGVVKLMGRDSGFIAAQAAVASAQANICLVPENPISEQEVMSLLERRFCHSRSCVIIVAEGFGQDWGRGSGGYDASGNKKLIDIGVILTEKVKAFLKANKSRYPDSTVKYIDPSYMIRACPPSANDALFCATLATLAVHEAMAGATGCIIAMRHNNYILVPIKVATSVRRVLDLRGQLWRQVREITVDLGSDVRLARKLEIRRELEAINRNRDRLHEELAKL", "test": "ALDO/G3PDH/TIM linked enzyme assay for measuring PFK inhibition", "assay_type": "biochemical", "design": "key: absorbance at 340 nm (NADH)", "experimental": "In the PFK/PYK/LDH assay, the linked PYK activity acts to convert the ADP produced by PFK back to ATP. As ATP is an inhibitor of human PFK (but not TbPFK) at concentrations higher than ~0.5 mM the regeneration of ATP is likely to affect the assay readout. An alternative linked assay was therefore developed using PFK/aldolase (ALDO)/glycerol-3-phosphate dehydrogenase (G3PD)/triosephosphate isomerase (TIM). In this assay F16BP produced by PFK is subsequently converted by aldolase into dihydroxyacetone phosphate (DHAP) and glyceraldehyde 3-phosphate (GA3P). TIM interconverts GA3P and DHAP, and DHAP is reduced to glycerol 3-phosphate by G3PD, alongside the oxidation of NADH to NAD^+, which was measured by observing the change in UV absorbance at 340 nm for 10 minutes at 25° C using a Spectramax© M5 Multimode plate reader.\nThe assay buffer consisted of 50 mM TEA, 100 mM KCl, 10 mM MgCl2, 10% glycerol, 1 mM Tris(2-carboxyethyl)phosphine (TCEP), pH 7.4. Assay mix consisted of 5 U/ml G3PD (Sigma-Aldrich G6880), 2.5 U/ml ALDO (Sigma-Aldrich A2714), 25 U/ml TIM (Sigma-Aldrich T6258), and 1.25 mM NADH. ATP and F6P were obtained from Sigma-Aldrich (A2383 and F3627, respectively). All ligands and substrates (including ATP) were used at pH 7.4). 40 µl of assay mix, followed by 45 µl assay buffer, 4 µl of 0.1 mg/ml PFK and 1 µl of 100x serially diluted inhibitors were added to a non-binding, clear 96-well plate (Greiner Bio-One 655901) and incubated at RT for 10 minutes. The reaction was started by addition of 10 µl of 6 mM F6P (Supplementary Table 1)."}}, "note": "Values joined by “and” are separate entries in the source; they are usually repeats but may differ in a detail not shown here. Identical values can stand only once. Like-named read-outs stand apart in the source and are kept apart here.", "data": [{"molecule": "CN(C)CCn1ccc2c(ccn2Cc2ccc(Cl)c(Cl)c2)c1=O", "note": "[CTCB-405, 1-[(3,4-Dichlorophenyl)methyl]-5-[2-(dimethylamino)ethyl] pyrrolo[3,2-c]pyridin-4-one]", "values": [{"measurement": "logP", "setting": "[1]; read-out: Measured logP", "result": 3.29}, {"measurement": "pKa", "setting": "[1]; read-out: Measured pKa", "result": 8.09}, {"measurement": "concentration at 2 h", "setting": "[2]; brain homogenate, read-out: mean concentration in brain homogenate", "result": 1510, "unit": "ng/g"}, {"measurement": "concentration at 2 h", "setting": "[2]; plasma, read-out: mean plasma concentration", "result": 366, "unit": "ng/mL"}]}, {"molecule": "CN(C)CCn1ccc2c(ccn2Cc2ccc(Cl)c(Cl)c2)c1=O", "note": "[CTCB 405]", "values": [{"measurement": "TbPFK reaction time course reading (Figure 6a)", "setting": "TbPFK; 0.02 uM CTCB 405, time 0.104167", "result": "0.5676 and 0.5291"}, {"measurement": "TbPFK reaction time course reading (Figure 6a)", "setting": "TbPFK; 0.02 uM CTCB 405, time 0.121528", "result": "0.545 and 0.5077"}, {"measurement": "TbPFK reaction time course reading (Figure 6a)", "setting": "TbPFK; 0.02 uM CTCB 405, time 0.138889", "result": "0.5241 and 0.488"}, {"measurement": "TbPFK reaction time course reading (Figure 6a)", "setting": "TbPFK; 0.02 uM CTCB 405, time 0.15625", "result": "0.5057 and 0.4696"}, {"measurement": "TbPFK reaction time course reading (Figure 6a)", "setting": "TbPFK; 0.02 uM CTCB 405, time 0.173611", "result": "0.4873 and 0.4524"}, {"measurement": "TbPFK reaction time course reading (Figure 6a)", "setting": "TbPFK; 0.02 uM CTCB 405, time 0.190972", "result": "0.4705 and 0.4366"}, {"measurement": "TbPFK reaction time course reading (Figure 6a)", "setting": "TbPFK; 0.05 uM CTCB 405, time 0.104167", "result": "0.6118 and 0.5698"}, {"measurement": "TbPFK reaction time course reading (Figure 6a)", "setting": "TbPFK; 0.05 uM CTCB 405, time 0.121528", "result": "0.5919 and 0.5511"}, {"measurement": "TbPFK reaction time course reading (Figure 6a)", "setting": "TbPFK; 0.05 uM CTCB 405, time 0.138889", "result": "0.5731 and 0.5324"}, {"measurement": "TbPFK reaction time course reading (Figure 6a)", "setting": "TbPFK; 0.05 uM CTCB 405, time 0.15625", "result": "0.5537 and 0.5159"}, {"measurement": "TbPFK reaction time course reading (Figure 6a)", "setting": "TbPFK; 0.05 uM CTCB 405, time 0.173611", "result": "0.5368 and 0.4994"}, {"measurement": "TbPFK reaction time course reading (Figure 6a)", "setting": "TbPFK; 0.05 uM CTCB 405, time 0.190972", "result": "0.5212 and 0.4835"}, {"measurement": "TbPFK reaction time course reading (Figure 6a)", "setting": "TbPFK; 0.43 uM CTCB 405, time 0.104167", "result": "0.7703 and 0.7388"}, {"measurement": "TbPFK reaction time course reading (Figure 6a)", "setting": "TbPFK; 0.43 uM CTCB 405, time 0.121528", "result": "0.7663 and 0.7359"}, {"measurement": "TbPFK reaction time course reading (Figure 6a)", "setting": "TbPFK; 0.43 uM CTCB 405, time 0.138889", "result": "0.7635 and 0.7314"}, {"measurement": "TbPFK reaction time course reading (Figure 6a)", "setting": "TbPFK; 0.43 uM CTCB 405, time 0.15625", "result": "0.7593 and 0.7286"}, {"measurement": "TbPFK reaction time course reading (Figure 6a)", "setting": "TbPFK; 0.43 uM CTCB 405, time 0.173611", "result": "0.7551 and 0.7249"}, {"measurement": "TbPFK reaction time course reading (Figure 6a)", "setting": "TbPFK; 0.43 uM CTCB 405, time 0.190972", "result": "0.7517 and 0.7206"}, {"measurement": "TbPFK reaction time course reading (Figure 6a)", "setting": "TbPFK; 0.43 uM CTCB 405, time 0.208333", "result": "0.7473 and 0.7169"}, {"measurement": "TbPFK reaction time course reading (Figure 6a)", "setting": "TbPFK; 1.29 uM CTCB 405, time 0.104167", "result": "0.8081 and 0.7679"}, {"measurement": "TbPFK reaction time course reading (Figure 6a)", "setting": "TbPFK; 1.29 uM CTCB 405, time 0.121528", "result": "0.808 and 0.7688"}, {"measurement": "TbPFK reaction time course reading (Figure 6a)", "setting": "TbPFK; 1.29 uM CTCB 405, time 0.138889", "result": "0.8069 and 0.768"}, {"measurement": "TbPFK reaction time course reading (Figure 6a)", "setting": "TbPFK; 1.29 uM CTCB 405, time 0.15625", "result": "0.8064 and 0.7673"}, {"measurement": "TbPFK reaction time course reading (Figure 6a)", "setting": "TbPFK; 1.29 uM CTCB 405, time 0.173611", "result": "0.8063 and 0.7675"}, {"measurement": "TbPFK reaction time course reading (Figure 6a)", "setting": "TbPFK; 1.29 uM CTCB 405, time 0.190972", "result": "0.8048 and 0.7672"}, {"measurement": "TbPFK reaction time course reading (Figure 6a)", "setting": "TbPFK; 3.88 uM CTCB 405, time 0.104167", "result": "0.8165 and 0.7707"}, {"measurement": "TbPFK reaction time course reading (Figure 6a)", "setting": "TbPFK; 3.88 uM CTCB 405, time 0.121528", "result": "0.8167 and 0.7708"}, {"measurement": "TbPFK reaction time course reading (Figure 6a)", "setting": "TbPFK; 3.88 uM CTCB 405, time 0.138889", "result": "0.8177 and 0.7708"}, {"measurement": "TbPFK reaction time course reading (Figure 6a)", "setting": "TbPFK; 3.88 uM CTCB 405, time 0.15625", "result": "0.8174 and 0.7711"}, {"measurement": "TbPFK reaction time course reading (Figure 6a)", "setting": "TbPFK; 3.88 uM CTCB 405, time 0.173611", "result": "0.8172 and 0.7718"}, {"measurement": "TbPFK reaction time course reading (Figure 6a)", "setting": "TbPFK; 3.88 uM CTCB 405, time 0.190972", "result": "0.8172 and 0.7712"}, {"measurement": "TbPFK reaction time course reading (Figure 6a)", "setting": "TbPFK; 11.66 uM CTCB 405, time 0.104167", "result": "0.818 and 0.7732"}, {"measurement": "TbPFK reaction time course reading (Figure 6a)", "setting": "TbPFK; 11.66 uM CTCB 405, time 0.121528", "result": "0.8194 and 0.7744"}, {"measurement": "TbPFK reaction time course reading (Figure 6a)", "setting": "TbPFK; 11.66 uM CTCB 405, time 0.138889", "result": "0.8194 and 0.7745"}, {"measurement": "TbPFK reaction time course reading (Figure 6a)", "setting": "TbPFK; 11.66 uM CTCB 405, time 0.15625", "result": "0.8194 and 0.7742"}, {"measurement": "TbPFK reaction time course reading (Figure 6a)", "setting": "TbPFK; 11.66 uM CTCB 405, time 0.173611", "result": "0.8203 and 0.7754"}, {"measurement": "TbPFK reaction time course reading (Figure 6a)", "setting": "TbPFK; 11.66 uM CTCB 405, time 0.190972", "result": "0.82 and 0.776"}, {"measurement": "TbPFK reaction time course reading (Figure 6a)", "setting": "TbPFK; 35 uM CTCB 405, time 0.104167", "result": "0.7782 and 0.7773"}, {"measurement": "TbPFK reaction time course reading (Figure 6a)", "setting": "TbPFK; 35 uM CTCB 405, time 0.121528", "result": "0.7782 and 0.776"}, {"measurement": "TbPFK reaction time course reading (Figure 6a)", "setting": "TbPFK; 35 uM CTCB 405, time 0.138889", "result": "0.7789 and 0.7774"}, {"measurement": "TbPFK reaction time course reading (Figure 6a)", "setting": "TbPFK; 35 uM CTCB 405, time 0.15625", "result": "0.7788 and 0.7781"}, {"measurement": "TbPFK reaction time course reading (Figure 6a)", "setting": "TbPFK; 35 uM CTCB 405, time 0.173611", "result": "0.779 and 0.7789"}, {"measurement": "TbPFK reaction time course reading (Figure 6a)", "setting": "TbPFK; 35 uM CTCB 405, time 0.190972", "result": "0.7794 and 0.7785"}]}]}
